The test system of one assay is EP2 receptor. The assay can be described thus: EP2 receptor expression in LPS stimulated human PBMC's via RT-PCR. Type of assay: cell-based. The conditions noted are these: control PBMC's. The method, then:
(§1) Serial dilutions were made to co-culture cells with a final concentration of […] NS-398 in a 0.1% DMSO. Control and trauma groups were co-cultured with 0.1% DMSO vehicle for comparisons with NS-398 treated groups.

The subject of the next assay is CD14 receptor. Conditions: mononuclear cells from control and injured subjects, co-culture with 100 μM PGE2.
The subject of the next assay is EP4 receptor. Briefly: EP4 receptor expression in LPS stimulated human PBMC's via RT-PCR. The assay is classed as cell-based. The conditions noted are these: control PBMC's. On the procedure: as §1
[1] abbreviates: exogenous PGE2 from 10^−4 μM, below 100 μM.

“Also recorded” adds a separate entry of the source.

Method for CD14 receptor: To confirm that injury was not down regulating all circulating mononuclear cell surface receptors, the expression of the CD14 receptor, which is ubiquitous on the surface of mononuclear cells, was evaluated.

`CCCCC[C@H](O)/C=C/[C@H]1[C@H](O)CC(=O)[C@@H]1C/C=C\CCCC(=O)O` [PGE2, Prostaglandin-E2]: the EP2 receptor expression result with EP2 receptor (100 μM exogenous PGE2) is “attenuated to levels below those seen in control samples; also recorded: Decreased expression”; with EP2 receptor (setting [1]) it was “no change in receptor expression; also recorded: No attenuation”. Moreover, the CD14 receptor expression result in the assay with CD14 receptor is listed as “did not markedly alter the levels of CD14 receptor expression”. Besides, the EP4 receptor expression result was “attenuated to levels below those seen in control samples; also recorded: Decreased expression” in the assay with EP4 receptor (100 μM exogenous PGE2) and “no change in receptor expression; also recorded: No attenuation” in the assay on EP4 receptor (setting [1]).

The values are drawn from patent US20020006915A1, “Use of COX-2 inhibitors to treat sepsis, complications thereof, and EP receptor modulation” (priority 2000, published 2002).
